Patent US9757426B2, “Peptide additives for enhancing acceptance and ingestion of edibles by rodents and uses thereof” (priority 2013, dated 2017)
No end group written: not given here.

How the values were obtained:
Type in all cases: in vivo
mice [1] = experiment: Concentration/response functions, preference for warfarin-containing food; details: both foods contain 0.025% warfarin, +/- SEM
From the text: Concentration/response functions were studies for uroguanylin. […] A preference ratio of 0.5 indicates no preference.
Concentration/response functions were also studied for guanylin. […] A preference ratio of 0.5 indicates no preference.

mice [2] = experiment: Maintenance over time of uroguanylin-dependent preferences (warfarin-containing foods, retests); details: 50 nM uroguanylin
Protocol: Mice form preferences to food and feeding sites when food odors are paired with the social cues uroguanylin. It was determined whether mice will maintain this preference and return to the learned food odor even after the food has been tainted with the commonly used rodenticide warfarin. […] A preference ratio of 0.5 indicates no preference. […] These same mice were retested one and four days after the initial day of testing. […] By contrast, there was no effect of the test day on the preference ratio.

C57BL/6J mice = experiment: Preference testing after uroguanylin exposure (B6 mice); details: mean ± s.e.m.
From the text: Food preference testing—Food preference assays were modified from those used previously for testing the social transmission of food preference in rats and mice (Galef et al. 1983; Posadas-Andrews and Roper 1983; Valsecchi and Galef 1989; Crawley 2007; Ryan et al. 2008; Munger et al. 2010). In all experiments, subject mice were pair-housed for four days in standard cages with the food container placed on the cage floor. Mice were fed a crushed rodent diet (2018SX, Harlan) to habituate them to powdered food. The amount of food was restricted to 2 g/mouse/day to facilitate feeding during the food preference tests. […] All data were expressed as mean ±S.E.M. Differences were accepted as significant if p<0.05 (see below for statistical tests).
B6 mice were randomly assigned into one of three groups (n=8 each). On the test day, each mouse was moved to individual cages and presented with a petri dish containing a drop of saline (150 μl) with added flavor powder (2% cocoa or 1% cinnamon) with or without uroguanylin (0, 50 nM or 50 μM). After 1 hr exposure, mice were moved to clean cages. After 3 hrs, mice were presented with two food trays (3.5 cm petri dishes mounted to a weighted plastic stage), one of which contained cocoa-odored food (3.5 g) and the other cinnamon-odored food (3.5 g). Subject mice were allowed to feed for 1 hr, at which point the food trays were removed and weighed to calculate the amount of each food consumed. […] Significance between stimulus conditions was determined by one-way ANOVA.
The chemostimulus CS2, when paired with a food odor, is sufficient to increase the attractiveness of foods and to promote the acquisition of food preferences in mice (Bean et al. 1988; Munger et al. 2010). Whether uroguanylin could serve a similar role was tested. Individual observer mice were allowed to interact with a petri dish containing an odor (2% cocoa or 1% cinnamon) with or without uroguanylin (50 nM or 50 μM) in saline. Each mouse was subsequently presented with a choice of two odored chows (cocoa vs. cinnamon).

[3] = 1 nM peptide + food odor in saline for 1 hr
[4] = 50 nM peptide + food odor in saline for 1 hr

Substance | Preference ratio (PR = food with demonstrated odor (g) consumed/total food (g) consumed) (mice [1]; [3]) | Preference ratio (PR = food with demonstrated odor (g) consumed/total food (g) consumed) (mice [1]; [4]) | Preference ratio (PR) (mice [2]; initial day of testing, both foods contain 0.025% warfarin) | Preference ratio (PR) (mice [2]; retest Day 2, foods contain 0.025% warfarin) | Preference ratio (PR) (mice [2]; retest Day 5, foods contain 0.025% warfarin) | Amount of food consumed, Total food (C57BL/6J mice; Odor + UG (50 nM)) [g] | Amount of food consumed, w/demonstrated odor (C57BL/6J mice; Odor + UG (50 nM)) [g] | Amount of food consumed, w/novel odor (C57BL/6J mice; Odor + UG (50 nM)) [g] | Amount of food consumed, Total food (C57BL/6J mice; Odor + UG (50 μM)) [g] | Amount of food consumed, w/demonstrated odor (C57BL/6J mice; Odor + UG (50 μM)) [g] | Amount of food consumed, w/novel odor (C57BL/6J mice; Odor + UG (50 μM)) [g]
guanylin (PGTCEICAYAACTGC; ends and bridges not checked; cysteine pairing not given here; UniProt Q02747 101-115, looked up) [guanylin family peptide, naturally-occurring peptide hormone produced in the intestines] | 0.75 +/−0.04 | 0.72 +/−0.04 |  |  |  |  |  |  |  |  | 
uroguanylin (NDDCELCVNVACTGCL; ends and bridges not checked; cysteine pairing not given here; UniProt Q16661 97-112, looked up) [guanylin family peptide, naturally-occurring peptide hormone produced in the intestines; GC-D agonist] | 0.65 +/−0.05 | 0.76 +/−0.04 | 0.76+/−0.04 | 0.72 +/−0.06 | 0.74 +/−0.08 | 1.42 ± 0.19 | 1.08 ± 0.14 | 0.34 ± 0.08 | 1.50 ± 0.26 | 1.15 ± 0.14 | 0.35 ± 0.12
